Reference: patent US11976072B2, “Diacylglycerol kinase modulating compounds” (priority 2021, dated 2024)
Read-outs that look alike come from different tables or passages of the source.

Legend:
[1] = tested on: Jurkat NFκB-luciferase cells; experiment: Jurkat NFκB-Luciferase Assay; format: cell-based; settings: Homo sapiens
How it was run: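 Luminescence from One-Glo Ex, read 7 min post-addition, reports NFκB activation in Jurkat luciferase reporter cells. Cells, diluted to 1 million cells/ml in 10% FBS RPMI, were dispensed onto plates holding compound and washed, pre-bound antibody.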

human DGKα = human DGKα (Homo sapiens, UniProt P23743); experiment: DGKα Biochemical Activity Assay (ADP-Glo); settings: recombinant DGKα 1 nM, 100 μM ATP, 18:1 DAG/POPS/octylglucoside micelles, 1 hour at 25° C.; geometric mean; read-out: HTBS DGKa 1X ATP KM IC50;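 note: luminescent detection of ADP produced as DGKα phosphorylates DAG to phosphatidic acid, IC50 from four-parameter nonlinear curve fit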
Sequence of human DGKα (P23743 whole entry): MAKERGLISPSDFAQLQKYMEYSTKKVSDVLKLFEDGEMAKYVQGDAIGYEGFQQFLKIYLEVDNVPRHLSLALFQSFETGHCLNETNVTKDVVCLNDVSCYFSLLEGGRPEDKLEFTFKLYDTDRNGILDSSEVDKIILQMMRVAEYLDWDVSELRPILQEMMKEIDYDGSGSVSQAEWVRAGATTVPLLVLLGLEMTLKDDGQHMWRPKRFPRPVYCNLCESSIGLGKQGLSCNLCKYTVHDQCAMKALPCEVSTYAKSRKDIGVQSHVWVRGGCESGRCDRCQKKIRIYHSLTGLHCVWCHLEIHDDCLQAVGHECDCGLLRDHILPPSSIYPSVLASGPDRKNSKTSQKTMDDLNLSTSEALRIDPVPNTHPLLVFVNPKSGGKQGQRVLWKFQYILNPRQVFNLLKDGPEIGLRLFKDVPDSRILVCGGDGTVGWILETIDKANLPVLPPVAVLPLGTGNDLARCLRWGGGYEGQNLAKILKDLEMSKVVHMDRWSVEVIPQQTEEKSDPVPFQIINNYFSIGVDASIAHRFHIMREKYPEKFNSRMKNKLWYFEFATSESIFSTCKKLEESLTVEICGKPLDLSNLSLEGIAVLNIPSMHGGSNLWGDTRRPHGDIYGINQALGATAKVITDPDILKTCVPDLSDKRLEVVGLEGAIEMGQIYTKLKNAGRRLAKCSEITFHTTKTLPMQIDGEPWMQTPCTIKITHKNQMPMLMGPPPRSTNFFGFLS

[2] = Jurkat NFκB-luciferase cells activated with anti-CD3 antibody (OKT3), 2.5 hrs at 37° C., geometric mean, read-out: DGK NFKb Luciferase EC50
[3] = Jurkat, […], read-out: DGK NFKb Luciferase EC50 (nM)

Structure (SMILES) | EC50 [1, 2] [nM] | IC50 (human DGKα) [nM] | EC50 [1, 3] [nM]
Cc1nnc2nc(N3CCCc4c(C#CC(C)(C)NC(=O)C5(C(F)(F)F)CC5)cccc43)c3c(F)cccc3n12 [Example 151, N-(4-(1-(6-fluoro-1-methyl-[1,2,4]triazolo[4,3-a]quinazolin-5-yl)-1,2,3,4-tetrahydroquinolin-5-yl)-2-methylbut-3-yn-2-yl)-1-(trifluoromethyl)cyclopropane-1-carboxamide] | 3.59 | 2.41 | 
Cc1nnc2nc(N3CCCc4c(C#CC(C)(C)O)cc(F)cc43)c3c(F)cccc3n12 [Example 152, 4-(7-fluoro-1-(6-fluoro-1-methyl-[1,2,4]triazolo[4,3-a]quinazolin-5-yl)-1,2,3,4-tetrahydroquinolin-5-yl)-2-methylbut-3-yn-2-ol] | 53.9 | 34.6 | 
Cc1nnc2nc(N3CCOCc4c(N5CC6CC(C5)C6(F)F)cccc43)c3c(F)cccc3n12 [Example 153] | 3.98 | 82.8 | 
Cc1nnc2nc(N3CCOCc4c(N5CCC(C)(C#N)CC5)cccc43)c3c(F)cccc3n12 [Example 154, 1-[1-(6-fluoro-1-methyl-[1,2,4]triazolo[4,3-a]quinazolin-5-yl)-3,5-dihydro-2H-4,1-benzoxazepin-6-yl]-4-methyl-piperidine-4-carbonitrile] | 6.33 | 7.42 | 
Cc1nnc2nc(N3CCCc4c(N5CCC(C)(C#N)CC5)cccc43)c3c(F)cccc3n12 [Example 155, 1-[1-(6-fluoro-1-methyl-[1,2,4]triazolo[4,3-a]quinazolin-5-yl)-3,4-dihydro-2H-quinolin-5-yl]-4-methyl-piperidine-4-carbonitrile] | 5.13 | 25.6 | 
Cc1nnc2nc(N3CCCc4c(N5CCC(C)(F)CC5)cccc43)c3c(F)cccc3n12 [Example 156, 6-fluoro-5-[5-(4-fluoro-4-methyl-1-piperidyl)-3,4-dihydro-2H-quinolin-1-yl]-1-methyl-[1,2,4]triazolo[4,3-a]quinazoline] | 1.02 | 40.2 | 
Cc1nnc2nc(N3CCCc4c(N5CCC(F)(F)CC5)cccc43)c3c(F)cccc3n12 [Example 157, 5-[5-(4,4-difluoro-1-piperidyl)-3,4-dihydro-2H-quinolin-1-yl]-6-fluoro-1-methyl-[1,2,4]triazolo[4,3-a]quinazoline] | 8.23 | 672 | 
Cc1nnc2nc(N3CCCc4c(N5CCN(C(=O)C(F)F)CC5)cccc43)c3c(F)cccc3n12 [Example 158, 2,2-difluoro-1-[4-[1-(6-fluoro-1-methyl-[1,2,4]triazolo[4,3-a]quinazolin-5-yl)-3,4-dihydro-2H-quinolin-5-yl]piperazin-1-yl]ethanone] | 49.3 | 281 | 
Cc1nnc2nc(N3CCCc4c(N5CCN(C(=O)C(F)(F)F)CC5)cccc43)c3c(F)cccc3n12 [Example 159] | 16.5 | 333 | 
Cc1nnc2nc(N3CCCc4c(N5CCN(S(C)(=O)=O)CC5)cccc43)c3c(F)cccc3n12 [Example 160, 6-fluoro-1-methyl-5-[5-(4-methylsulfonylpiperazin-1-yl)-3,4-dihydro-2H-quinolin-1-yl]-[1,2,4]triazolo[4,3-a]quinazoline] | 28.6 | 74.9 | 
Cc1nnc2nc(N3CCCc4c(N5CCN(C(=O)OC(C)(C)C)CC5)cccc43)c3c(F)cccc3n12 [Example 161, tert-butyl 4-[1-(6-fluoro-1-methyl-[1,2,4]triazolo[4,3-a]quinazolin-5-yl)-3,4-dihydro-2H-quinolin-5-yl]piperazine-1-carboxylate] |  | 87.1 | 5.49
Cc1nnc2nc(N3CCN(C)Cc4c(C#CC(C)(C)C(F)(F)F)cccc43)c3c(F)cccc3n12 [Example 162, 6-fluoro-1-methyl-5-[4-methyl-6-(4,4,4-trifluoro-3,3-dimethyl-but-1-ynyl)-3,5-dihydro-2H-1,4-benzodiazepin-1-yl]-[1,2,4]triazolo[4,3-a]quinazoline] | 3.33 | 15 | 
Cc1nnc2nc(N3CCN(C)Cc4c(C#CC5(C(F)(F)F)CC5)cccc43)c3c(F)cccc3n12 [Example 164, 6-fluoro-1-methyl-5-[4-methyl-6-[2-[1-(trifluoromethyl)cyclopropyl]ethynyl]-3,5-dihydro-2H-1,4-benzodiazepin-1-yl]-[1,2,4]triazolo[4,3-a]quinazoline] | 3.63 | 13 | 
Cc1nnc2nc(N3CCN(C)Cc4c(C#CC5(C)CC5)cccc43)c3c(F)cccc3n12 [Example 165, 6-fluoro-1-methyl-5-[4-methyl-6-[2-(1-methylcyclopropyl)ethynyl]-3,5-dihydro-2H-1,4-benzodiazepin-1-yl]-[1,2,4]triazolo[4,3-a]quinazoline] | 5.35 | 7.6 | 
Cc1nnc2nc(N3CCN(C)Cc4c(C#CC5(C(C)(F)F)CC5)cccc43)c3c(F)cccc3n12 [Example 166, 5-[6-[2-[1-(1,1-difluoroethyl)cyclopropyl]ethynyl]-4-methyl-3,5-dihydro-2H-1,4-benzodiazepin-1-yl]-6-fluoro-1-methyl-[1,2,4]triazolo[4,3-a]quinazoline] | 15.8 | 17.4 | 
Cc1nnc2nc(N3CCCOc4c(C#CC5CC5)cncc43)c3c(F)c(F)ccc3n12 [Example 167, 9-(2-cyclopropylethynyl)-5-(6,7-difluoro-1-methyl-[1,2,4]triazolo[4,3-a]quinazolin-5-yl)-3,4-dihydro-2H-pyrido[4,3-b][1,4]oxazepine] | 5.84 | 18 | 
Cc1nnc2nc(N3CCN(C)Cc4c(C#CC(C)(C)C(F)(F)F)cccc43)c3c(F)c(F)ccc3n12 [Example 168, 6,7-difluoro-1-methyl-5-[4-methyl-6-(4,4,4-trifluoro-3,3-dimethyl-but-1-ynyl)-3,5-dihydro-2H-1,4-benzodiazepin-1-yl]-[1,2,4]triazolo[4,3-a]quinazoline] | 5.41 | 10.4 | 
Cc1nnc2nc(N3CCN(C)Cc4c(C#CC5(C(F)(F)F)CC5)cccc43)c3c(F)c(F)ccc3n12 [Example 169, 6,7-difluoro-1-methyl-5-[4-methyl-6-[2-[1-(trifluoromethyl)cyclopropyl]ethynyl]-3,5-dihydro-2H-1,4-benzodiazepin-1-yl]-[1,2,4]triazolo[4,3-a]quinazoline] | 4.39 | 7.3 | 
Cc1nnc2nc(N3CCN(C)Cc4c(C#CC(C)(C)O)cccc43)c3cc(F)ccc3n12 [Example 170, 4-[1-(7-fluoro-1-methyl-[1,2,4]triazolo[4,3-a]quinazolin-5-yl)-4-methyl-3,5-dihydro-2H-1,4-benzodiazepin-6-yl]-2-methyl-but-3-yn-2-ol] |  | 51 | 358
Cc1nnc2nc(N3CCN(C)Cc4c(C#CC(C)(C)C(F)(F)F)cccc43)c3cc(F)ccc3n12 [Example 171, 7-fluoro-1-methyl-5-[4-methyl-6-(4,4,4-trifluoro-3,3-dimethyl-but-1-ynyl)-3,5-dihydro-2H-1,4-benzodiazepin-1-yl]-[1,2,4]triazolo[4,3-a]quinazoline] | 7.36 | 14.8 | 
Cc1nnc2nc(N3CCN(C)Cc4c(C#CC5(C(F)(F)F)CC5)cccc43)c3cc(F)ccc3n12 [Example 172, 7-fluoro-1-methyl-5-[4-methyl-6-[2-[1-(trifluoromethyl)cyclopropyl]ethynyl]-3,5-dihydro-2H-1,4-benzodiazepin-1-yl]-[1,2,4]triazolo[4,3-a]quinazoline] | 3.23 | 8.77 | 
